row,Compound,melting point
1,CCC(O)(CC)c1ccc(-c2cccc(OCc3ccc(CO)c(CO)c3)c2)cc1C,76 °C
2,COc1ccc(CN(Cc2ccc(OC)cc2)S(=O)(=O)c2ccc(N(CCS(C)(=O)=O)Cc3ccc(C)cc3)cc2)cc1,85.7 to 86.6 °C
3,COc1ccc(CC2COCc3nc4c(N)nc5ccccc5c4n32)cc1 (stereo unspecified),115 to 130 °C
4,CCc1csc2[nH]c(=O)c(=O)[nH]c12,> 300 °C
5,C=CCS(=O)(=O)CC=C,63 to 65 °C
6,CN(SN(CC#N)CC#N)C(=O)Oc1cccc2c1OC(C)(C)C2,94 to 95 °C
7,CCn1cc(-c2cnccn2)cc(Br)c1=O,129 to 132 °C
8,CNc1nc(-c2cncc(-c3ccccc3)c2)c2cc(OC)c(OC)cc2n1,177 to 179 °C
9,CCCCCN(CCC12CC3CC(CC(C3)C1)C2)C(=O)NCCc1cccnc1,112 to 114 °C
10,COc1ccc(S(=O)(=O)Nc2cccnc2Nc2cccc(C)c2)cc1,147 to 148 °C
11,Fc1ccc(Br)c2ccsc12,47 to 48 °C
12,O=S1(=O)N=CN(C2CCCC2)c2ccc(Cl)cc21,218 to 220 °C
13,O=S1(=O)c2cccc3cccc(c23)N1CCCN1CCC(c2ccccc2)(c2ccccc2)CC1,168 °C
14,CC(C)(C)c1ccc2c(Br)c3ccc(C(C)(C)C)cc3c(Br)c2c1,150 to 152 °C
15,CC(C)(C)C(=O)CN1C(=O)C(NC(=O)Nc2ccccc2)CN(C2CCCCC2)c2ccccc21 (stereo unspecified),247 to 251 °C
16,N#Cc1ccc(N2CC=C(N3CCCC3)CC2)cc1,126 to 129 °C
17,Cc1noc(NS(=O)(=O)c2ccccc2-c2ccc(-c3ncco3)cc2C(O)c2ncc(-c3ccccc3)o2)c1C (stereo unspecified),125 to 135 °C
18,CCNC(SC)=C(C#N)C(=O)OC,86 to 88 °C
19,COc1c(C2CCN(CCCCNC(=O)c3sc(-c4ccc(C(F)(F)F)cc4)nc3CO)CC2)ccc2c1CCCC2,179 to 180 °C
20,Cc1ccc(C2CCCN2S(=O)(=O)c2ccc(C)cc2)cc1 (racemic),124 °C
21,CC(/C=C/c1ccccc1)=C\C(=O)NCCCCCC(=O)NO,147 to 149 °C
22,CC1(C)COc2ccc(F)cc2C(O)(c2ccccn2)C1 (stereo unspecified),110 °C
23,C[C@H]1C(=O)C[C@@H]2C[C@H]1OO[C@]2(C)/C=C\c1ccc(C(F)(F)F)cc1C(F)(F)F,124 °C
24,CN(C)CCCC1(C(=O)O)CCCCC1(O)c1ccccc1 (stereo unspecified),144 to 145 °C
25,CS(=O)(=O)OCC1COC(=O)N1c1ccc(Cl)cc1 (stereo unspecified),124 to 126 °C
26,CCC(=O)N(C)C1CCN(Cc2cc3cccnc3n(-c3ccccc3F)c2=O)CC1,218 to 220 °C
27,COC[C@H]1CN(c2noc3cc(OS(=O)(=O)C(F)(F)F)ccc23)C(=O)O1,94 °C

row,Compound,melting point
1,COc1cc(OC)cc(-c2nc(C)nn2-c2ccc(S(N)(=O)=O)cn2)c1,195 to 196 °C
2,Cc1cc([N+](=O)[O-])ccc1OC12CC3CC(CC(C3)C1)C2,89.5 to 91 °C
3,CCCNC(=O)NS(=O)(=O)c1ccccc1I,211 to 212 °C
4,CC(C)c1ccc(C(=O)CC(c2ccccc2)c2ccccc2)c(C(C)C)c1OS(N)(=O)=O,149 to 152 °C
5,O=CNCc1nc2ccccc2o1,98 to 99 °C
6,CCCCCCCCCCOc1ccc(OCc2ccccc2)c(C(=O)N(CC(=O)O)CC(=O)O)c1,74 to 78 °C
7,CC(C)(C)CNS(=O)(=O)c1cccc([N+](=O)[O-])c1,99 °C
8,COC(=O)c1ccc(CN(O)Cc2ccc(C(=O)OC)cc2)cc1,129 to 131 °C
9,Cc1c(C(=O)C(N)=O)c2c(OCC(=O)O)cc3c(c2n1Cc1ccccc1)CCC3,255 to 257 °C
10,[N-]=[N+]=N[C@H]1CC[C@@H](NC(=O)OCc2ccccc2)CC1,42 to 46 °C
11,CCn1nc(C#N)c(Nc2ccc(F)cc2[N+](=O)[O-])n1,115 to 116 °C
12,O=C(O)Cn1c(Cc2ccccc2)ccc(NS(=O)(=O)CCc2ccccc2)c1=O,165 to 167 °C
13,CCCCCCOP(=O)(OCCCCCC)c1ccc(NC(=O)c2cccc([N+](=O)[O-])c2)cc1,98 °C
14,Cc1nccn1-c1nc(-c2ccc(Cl)cc2)c(CCCCOS(C)(=O)=O)o1,100 to 101 °C
15,CS(=O)(=O)c1ccc(-c2ccc(C=O)n2-c2ccc(F)cc2)cc1,111 to 112 °C
16,CCOc1ncc(I)cc1C(=O)OC,67 to 69 °C
17,Cc1cccc2[nH]c(=S)nc(N)c12,> 250 °C
18,CC(C)(C)c1cc([PH](=O)O)cc(C(C)(C)C)c1O,106 to 111 °C
19,CC(C)Cn1c(OCc2ccccc2)noc1=O,53 to 60 °C
20,COc1ccc(C(=O)Nc2nc3ccc(N(C)C)cc3c(NCc3cccs3)c2C#N)cc1,163 °C
21,COc1cccc(C2(C=O)CCNCC2)c1OC,123 °C
22,Oc1ccc2c(c1)C[C@@H](NC[C@H](O)c1ccc(OCc3ccccc3)c(CCOCc3ccccc3)c1)CC2,147 to 150 °C
23,COc1ccc2nccc(CCC[C@@H]3CCN(CC#Cc4ccccc4F)C[C@@H]3C(=O)O)c2c1,154 °C
24,NC(=NC(=O)c1nc(Cl)c(N)nc1N)NCCCCCCCCCCCC(=O)Nc1ncc[nH]1,102 to 104 °C
25,C#CCNC1CCc2ccccc21 (stereo unspecified),39 to 41 °C
26,CC(O)C(=O)N[C@H](C(=O)NC(Cc1ccccc1)C(O)CNCC(O)C(Cc1ccccc1)NC(=O)OC(C)(C)C)C(C)C (stereo partly specified),210 to 214 °C
27,O=S(=O)(OCC(F)(F)F)c1ccc2ccccc2c1,72.7 °C

# Other lines, results leading:
row,melting point,Compound
1,191 °C,COc1cc2c(cc1[N+](=O)[O-])NC(=O)CN(C(=O)OCc1ccccc1)C2
2,266 to 268 °C,Nc1c(OCC(F)(F)F)cc(O)c2c1C(=O)c1ccccc1C2=O
3,70 to 72 °C,CN(CCO[N+](=O)[O-])C(=O)COC(=O)c1cc(S(N)(=O)=O)c(Cl)cc1NCc1ccco1
4,175 to 176 °C,Cc1nc(-c2ccccc2)nc(-c2ccncc2)c1CO
5,264 to 265 °C,CC(C)(C)OC(=O)N1CCC(Nc2ccc3nc(NC(=O)c4ccc(C(C)(C)C)cc4)cn3n2)C1 (stereo unspecified)
6,134 to 135 °C,CCCCc1nc(Cl)c(CO)n1Cc1ccccc1Cl
7,130 to 131 °C,O=C1CCCN1C(=O)Oc1cccc([N+](=O)[O-])c1
8,75.6 to 80.4 °C,CC(C)(C)OC(=O)N1CCc2c(Br)cccc2C1
9,> 320 °C,O=C(CN1CCCC1=O)Nc1ccc(-c2ncc(C(=O)O)c(O)n2)cc1
10,232 to 233 °C,Cc1cc(-c2nc3cc(C(C)(C)C)c(Cl)nn3c2-c2ccnc(N)c2)ccc1F
11,183 to 185 °C,N#Cc1cc(Cl)c(-n2ncc(-c3nc(C#N)c(C#N)[nH]3)n2)c(Cl)c1
12,210 to 215 °C,O=C(O)c1c[nH]c(Sc2cc(Cl)c(Cl)cc2Cl)c1
13,127 to 129 °C,CCc1nn2ccc3oc(C)cc3c2c1CO
14,89 °C,COc1ccc(C(=O)c2c(Cl)cccc2Cl)c(C)c1
15,243 to 244 °C,CC(=O)NC1=NN(c2ccc(C(=O)C(F)(F)F)cc2)CC1
16,167 to 168 °C,O=C(CCCCCCCNC(=O)OCc1ccccc1)Nc1cccc(C(=O)O)c1
17,113 to 114 °C,CC(C)(C)C(=O)Oc1ccc(C(=O)c2ccc(Cl)cc2)cc1
18,196 to 197 °C,Nc1ccc(OC(F)(F)F)c(C(=O)O)c1
19,158 to 160 °C,COC(=O)c1ccccc1Sc1c(O)c2c(Cl)cc(Cl)cc2[nH]c1=O
20,202 to 204 °C,NC(=O)c1c(Cl)c(-c2ccccc2)n2c1CN(S(=O)(=O)c1ccncc1)CC2
21,340 °C,CC(=O)n1c2ccccc2c2[nH]c(=O)c3nccn3c21
22,210 °C,O=C(OC(Cc1c[nH]cn1)C(=O)O)C(Cc1ccccc1)Cc1ccccc1 (stereo unspecified)
23,75 °C,CC(C)COC(=O)Nc1cc(Cl)cc(Cl)c1
24,112 to 113 °C,O=C(NCc1ccccn1)c1ccc(C(F)(F)F)cc1C(F)(F)F

row,melting point,Compound
1,145 to 146 °C,COc1ccc(C(=O)NCCOc2ccc(CC(Oc3ccccc3)C(=O)O)cc2)cn1 (stereo unspecified)
2,245 to 247 °C,Cc1nc2cc(N(C)C(=O)c3ccc(Cl)cc3Cl)ccc2n1C
3,87.5 to 89 °C,CCCc1c(OCc2ccccc2)ccc2c(=O)ccoc12
4,156 °C,CC1(C)COc2cc(Cl)cc(Cl)c2C(O)(c2ccccn2)C1 (stereo unspecified)
5,60 to 62 °C,CCOC(=O)c1cc(OC)c(C)cc1N
6,200 to 203 °C,CC(=O)Oc1ccc(Cn2c(-c3ccccc3)nc(Cl)c2CC(=O)O)cc1C
7,163 to 165 °C,O=C(O)CCCCCc1cccc2c(I)ncn12
8,80 °C,CC(C)(C)OC(=O)C(Nc1ccccc1)C(=O)N1CCCC1 (racemic)
9,94 to 95 °C,CN(O)C(=O)NCCc1ccc2c(c1)OCCO2
10,250 °C,Cc1cc(-c2[nH]nc3c2C(=O)c2c(NC(=O)NN4CCN(C)CC4)cccc2-3)c(C)s1
11,102 to 103 °C,FC(F)(F)c1cnc(CNC(=S)c2ccccc2Cl)c(Cl)c1
12,89 to 91 °C,FC(F)(F)c1ccc2nc[nH]c2c1
13,145 °C,O=C1c2ccccc2C(=O)c2c1cccc2N1CCC(O)CC1
14,277 to 281 °C,CC1=N/C(=C\c2c[nH]c3ncccc23)C(=O)N1
15,> 320 °C,COc1ccc2[nH]cc(-c3cc4c(C(N)=O)ccnc4[nH]3)c2c1
16,248 °C,CCN(CC)CCOc1ccc(Nc2ncc3c(n2)NC(=O)N(c2c(Cl)cccc2Cl)C3)cc1
17,138 to 141 °C,N#Cc1ccc2oc(-c3ccccc3)cc2c1
18,108 to 110 °C,COC(=O)CSCc1cccc(-c2nc(=O)c3ccccc3s2)n1
19,198 to 200 °C,CCc1cc(OCc2nc3ccccc3o2)c(=O)[nH]c1C
20,204 to 206 °C,N#Cc1cnn2c1N(C(=O)CN1CCN(C(=O)Nc3ccc(Cl)c(Cl)c3)CC1)CC=C2c1cccc(C(F)(F)F)c1
21,157 to 158 °C,CCOC(=O)C(C)Oc1ccc(C(=O)Nc2ccccc2Sc2ccccc2-c2nnn[nH]2)cc1 (stereo unspecified)
22,115 to 116 °C,Cc1oc(-c2ccccc2)nc1CCOc1cc(CO)on1
23,269 to 272 °C,Nc1nc(-n2cc(C(=O)O)c(=O)c3cc(F)c(N4CC(O)C4)c(F)c32)c(F)cc1F
